# Laboratory results taken from patent US20240299367A1, “METHODS OF TREATING ACUTE RESPIRATORY DISTRESS SYNDROME WITH ACTIVATORS OF TIE-2” (AERPIO PHARMACEUTICALS, INC., priority 2020, published 2024).
# Where two headings read alike, the source gives them in different places.
# Legend:
# [1] = molecular target: HPTPβ (Homo sapiens (Human), UniProt P23467); experiment: HPTPβ inhibitory activity (IC50); assay type: biochemical
# [2] = test system: polymicrobial septic shock; experiment: Cecal ligation and puncture (CLP) model of sepsis, survival; assay type: in vivo, Sprague Dawley rats; conditions: rats, SC BID days 1-5, monitored 10 days, Cpd 1 10 mg/kg, IM 20 mg/kg
# [3] = test system: SARS-COV, MERS-COV, and SARS-CoV-2; conditions: cell culture and animal models; cited from earlier work
# [4] = 0.9% saline, cited from earlier work
# [5] = Urine albumin/creatinine ratio (UACR) in Phase 2 and Phase 2b studies; assay type: in vivo, human; conditions: Phase 2, patients with evidence of diabetic nephropathy
# HPTPβ, sequence (P23467 23-1997): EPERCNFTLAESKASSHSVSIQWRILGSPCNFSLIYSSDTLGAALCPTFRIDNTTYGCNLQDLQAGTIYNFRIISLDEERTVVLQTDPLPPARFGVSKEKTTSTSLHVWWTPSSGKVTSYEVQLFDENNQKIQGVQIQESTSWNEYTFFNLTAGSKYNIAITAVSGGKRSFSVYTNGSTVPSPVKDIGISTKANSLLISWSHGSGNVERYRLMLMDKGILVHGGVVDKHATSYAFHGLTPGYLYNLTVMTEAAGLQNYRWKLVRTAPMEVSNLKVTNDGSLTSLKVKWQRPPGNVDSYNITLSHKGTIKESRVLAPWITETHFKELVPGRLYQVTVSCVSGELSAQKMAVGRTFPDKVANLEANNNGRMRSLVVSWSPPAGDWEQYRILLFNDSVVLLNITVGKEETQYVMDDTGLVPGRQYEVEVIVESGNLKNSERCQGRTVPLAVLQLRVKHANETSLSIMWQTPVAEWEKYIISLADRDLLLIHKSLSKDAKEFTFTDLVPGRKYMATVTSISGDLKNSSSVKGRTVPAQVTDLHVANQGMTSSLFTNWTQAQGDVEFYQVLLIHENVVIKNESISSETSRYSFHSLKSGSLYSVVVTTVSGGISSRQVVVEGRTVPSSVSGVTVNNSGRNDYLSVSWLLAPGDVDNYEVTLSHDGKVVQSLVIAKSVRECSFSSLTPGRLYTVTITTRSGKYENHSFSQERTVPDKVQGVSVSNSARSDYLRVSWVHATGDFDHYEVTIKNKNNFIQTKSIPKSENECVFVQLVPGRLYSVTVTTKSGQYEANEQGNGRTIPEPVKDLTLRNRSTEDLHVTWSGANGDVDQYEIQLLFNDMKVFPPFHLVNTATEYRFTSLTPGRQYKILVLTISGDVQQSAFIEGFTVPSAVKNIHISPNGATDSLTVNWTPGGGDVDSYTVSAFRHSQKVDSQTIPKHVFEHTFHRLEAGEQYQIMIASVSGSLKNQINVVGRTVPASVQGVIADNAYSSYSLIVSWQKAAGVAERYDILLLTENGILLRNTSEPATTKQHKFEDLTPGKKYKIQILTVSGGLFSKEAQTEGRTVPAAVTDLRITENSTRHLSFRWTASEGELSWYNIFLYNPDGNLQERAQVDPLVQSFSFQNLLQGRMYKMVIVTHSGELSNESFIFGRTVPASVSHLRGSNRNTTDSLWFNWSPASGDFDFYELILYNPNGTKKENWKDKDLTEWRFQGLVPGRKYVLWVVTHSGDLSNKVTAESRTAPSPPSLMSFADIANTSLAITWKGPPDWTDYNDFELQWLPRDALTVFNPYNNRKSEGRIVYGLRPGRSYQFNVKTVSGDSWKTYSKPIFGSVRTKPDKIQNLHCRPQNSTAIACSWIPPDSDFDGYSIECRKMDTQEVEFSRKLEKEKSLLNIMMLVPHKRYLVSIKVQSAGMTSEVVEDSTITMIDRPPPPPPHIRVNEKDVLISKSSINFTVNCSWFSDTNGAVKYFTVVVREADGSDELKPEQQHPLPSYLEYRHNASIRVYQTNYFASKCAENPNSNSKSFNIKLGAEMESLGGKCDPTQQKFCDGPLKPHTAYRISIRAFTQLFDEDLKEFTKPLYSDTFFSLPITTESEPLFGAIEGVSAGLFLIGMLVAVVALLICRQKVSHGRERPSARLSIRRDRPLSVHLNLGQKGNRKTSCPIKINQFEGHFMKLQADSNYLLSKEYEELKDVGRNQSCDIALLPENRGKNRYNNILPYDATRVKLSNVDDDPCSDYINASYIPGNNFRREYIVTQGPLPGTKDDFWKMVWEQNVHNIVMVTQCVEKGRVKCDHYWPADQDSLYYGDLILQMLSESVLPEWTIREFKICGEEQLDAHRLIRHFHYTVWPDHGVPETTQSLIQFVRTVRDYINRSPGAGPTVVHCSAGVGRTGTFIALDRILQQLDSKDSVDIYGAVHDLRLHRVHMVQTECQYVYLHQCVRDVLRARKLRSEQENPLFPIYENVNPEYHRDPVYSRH
molecule,measurement,setting,value
Cc1nc([C@H](Cc2ccc(NS(=O)(=O)O)cc2)NC(=O)OC(C)(C)C)cs1 [AA64],IC50,[1],33 nM
"COC(=O)Cc1csc([C@H](Cc2ccc(NS(=O)(=O)O)cc2)NC(=O)OC(C)(C)C)n1 [AA70, (S)-4-(2-(tert-Butoxycarbonyl)-2-(4-(2-(2-methoxy-2-oxoyethylamino)-2-oxoethyl)thiazole-2-yl)ethyl)phenylsulfamic acid]",IC50,[1],132 nM
"C[C@@H](O)[C@H]1C(=O)N2C(C(=O)O)=C(SCCN=CN)C[C@H]12 [IM, imipenem]",survival,[2],81%
CCC(CC)COC(=O)[C@H](C)N[P@](=O)(OC[C@H]1O[C@@](C#N)(c2ccc3c(N)ncnn23)[C@H](O)[C@@H]1O)Oc1ccccc1 [Remdesivir],antiviral activity,[3],exhibits activity in cell culture and animal models
same,storage time of diluted solution,[4]; refrigerated (2° C. to 8° C.),24 h
same,storage time of diluted solution,[4]; room temperature (20° C. to 25° C.),up to 4 hours
"ranibizumab (antibody, chains of the INN, looked up, V domains shown, Fab, anti-VEGF agent, standard-of-care intravitreal injection) VH: EVQLVESGGGLVQPGGSLRLSCAASGYDFTHYGMNWVRQAPGKGLEWVGWINTYTGEPTYAADFKRRFTFSLDTSKSTAYLQMNSLRAEDTAVYYCAKYPYYYGTSHWYFDVWGQGTLVTVSS VL: DIQLTQSPSSLSASVGDRVTITCSASQDISNYLNWYQQKPGKAPKVLIYFTSSLHSGVPSRFSGSGSGTDFTLTISSLQPEDFATYYCQQYSTVPWTFGQGTKVEIK",UACR change,[5],increase
